Read-outs that look alike come from different tables or passages of the source.
Columns and labels:
Format in all cases: cell-based
NCI-H460 = assay: in vitro cytotoxicity, MTT assay; conditions: Homo sapiens; NCI-H460, Lung, KRAS p.Q61H
Procedure: (§1) Cultivation of cells was performed according to standard procedures with the media recommended by the provider. The cells, in a total volume of 100 μL, were seeded in a 96-well plate with a white bottom (#3610). After a 24h incubation period at 37° C. and 5% CO2 the medium was exchanged by adding 90 μL fresh medium. The treatment started by adding the test compound in 10 μL of culture medium to the cells in triplicates. Concentrations ranging from 10^−6 M to 10^−13 M were chosen. The proliferation was detected using the MTT assay (ATCC). At the end of the incubation period the MTT reagent was added to all samples for 4h. Lysis of the cells followed by addition of the detergent was done overnight. The formed dye was detected at 570 nm. The proliferation of cells was defined as the 100% value.

HCT116 = assay: in vitro cytotoxicity, MTT assay; conditions: Homo sapiens, HCT-116; HCT116, Colorectal, KRAS p.G13D
Procedure: as §1

SW837 = assay: in vitro cytotoxicity, MTT assay; conditions: Homo sapiens; SW837, Colorectal, KRAS pG12C
Procedure: as §1

SW480 = assay: in vitro cytotoxicity, MTT assay; conditions: Homo sapiens; SW480, Colorectal, KRAS p.G12V
Procedure: as §1

HCT8 = assay: in vitro cytotoxicity, MTT assay; conditions: Homo sapiens, HCT-8; HCT8, Colorectal, KRAS WT
Procedure: as §1

HCT15 = assay: in vitro cytotoxicity, MTT assay; conditions: Homo sapiens, HCT-15; HCT15, Colorectal, KRAS p.G13D
Procedure: as §1

COLO205 = assay: in vitro cytotoxicity, MTT assay; conditions: Homo sapiens, COLO 205; COLO205, Colorectal, KRAS WT
Procedure: as §1

SW620 = assay: in vitro cytotoxicity, MTT assay; conditions: Homo sapiens, SW-620; SW620, Colorectal, KRAS p.G12V
Procedure: as §1

MIAPaCa2 = assay: in vitro cytotoxicity, MTT assay; conditions: Homo sapiens, MIA PaCa-2; MIAPaCa2, Pancreatic, KRAS pG12C
Procedure: as §1

A549 = assay: in vitro cytotoxicity, MTT assay; conditions: Homo sapiens; A549, Lung, KRAS p.G12S
Procedure: as §1

HT-29 = assay: in vitro cytotoxicity, MTT assay; conditions: Homo sapiens; HT-29, Colorectal, KRAS WT
Procedure: as §1

[1] = tested on: KRAS mutant colorectal and lung cancer cell lines; assay: in vitro cytotoxicity, MTT assay, summary; conditions: multiple KRAS mutant colorectal and lung cancer cell lines
Procedure: as §1

NCI-H1944 = assay: antiproliferative activity (OmniScreen); conditions: Homo sapiens; NCI-H1944, Lung, 72 hours; read-out: Absolute IC50
Source text: (§2) To determine associations of genomic alterations with compound 1′ sensitivity, 458 were mapped to a cell line present in DepMap (21Q3). Of the 458 cell lines mapped, there were 440 with available mutation data in DepMap. Cell line mutation and copy number data were accessed and for mutations, the data were filtered to include variants with a “damaging” or “other non-conserving” annotation only, in order to select variants which are more likely to be functionally important. The top quartile of cell lines based on their compound 1′IC50 values were defined as groups for comparison with the bottom quartile.

NCI-H358 = assay: antiproliferative activity (OmniScreen); conditions: Homo sapiens; NCI-H358, Lung, 72 hours; read-out: Absolute IC50
Source text: as §2

UM-UC-3 = assay: antiproliferative activity (OmniScreen); conditions: Homo sapiens, UMUC3; UM-UC-3, Bladder, 72 hours; read-out: Absolute IC50
Source text: as §2

LS513 = assay: antiproliferative activity (OmniScreen); conditions: Homo sapiens, LS-513; LS513, Large intestine/Colorectum, 72 hours; read-out: Absolute IC50
Source text: as §2

MOLP8 = assay: antiproliferative activity (OmniScreen); conditions: Homo sapiens, MOLP-8; MOLP8, Blood/Myeloma, 72 hours; read-out: Absolute IC50
Source text: as §2

NCI-H2122 = assay: antiproliferative activity (OmniScreen); conditions: Homo sapiens; NCI-H2122, Lung, 72 hours; read-out: Absolute IC50
Source text: as §2

Panc 05.04 = assay: antiproliferative activity (OmniScreen); conditions: Panc 05.04, Pancreas, 72 hours; read-out: Absolute IC50
Source text: as §2

Calu-6 = assay: antiproliferative activity (OmniScreen); conditions: Homo sapiens; Calu-6, Lung, 72 hours; read-out: Absolute IC50
Source text: as §2

CoC1/DDP = assay: antiproliferative activity (OmniScreen); conditions: Ovary, 72 hours, read-out: Absolute IC50
Source text: as §2

143B = assay: antiproliferative activity (OmniScreen); conditions: Homo sapiens, Bone, 72 hours, read-out: Absolute IC50
Source text: as §2

SU.86.86 = assay: antiproliferative activity (OmniScreen); conditions: Homo sapiens; SU.86.86, Pancreas, 72 hours; read-out: Absolute IC50
Source text: as §2

RBE = assay: antiproliferative activity (OmniScreen); conditions: Liver/Bile duct, 72 hours, read-out: Absolute IC50
Source text: as §2

SU-DHL-10 = assay: antiproliferative activity (OmniScreen); conditions: Homo sapiens, SU-DHL10; SU-DHL-10, Lymphoma, 72 hours; read-out: Absolute IC50
Source text: as §2

HEC-1-B = assay: antiproliferative activity (OmniScreen); conditions: Homo sapiens, Uterus, 72 hours, read-out: Absolute IC50
Source text: as §2

DV-90 = assay: antiproliferative activity (OmniScreen); conditions: Homo sapiens; DV-90, Lung, 72 hours; read-out: Absolute IC50
Source text: as §2

LCLC-97TM1 = assay: antiproliferative activity (OmniScreen); conditions: Homo sapiens; LCLC-97TM1, Lung, 72 hours; read-out: Absolute IC50
Source text: as §2

HCC44 = assay: antiproliferative activity (OmniScreen); conditions: Homo sapiens; HCC44, Lung, 72 hours; read-out: Absolute IC50
Source text: as §2

[2] = tested on: panel of 500 tumor cell lines; assay: antiproliferative activity, panel of 500 tumor cell lines (OmniScreen)
Source text: as §2

IC50 (NCI-H1944): 75 nM
IC50 (NCI-H358): 41 nM
IC50 (NCI-H2122): 70 nM
IC50 (Panc 05.04): 38 nM
IC50 (Calu-6): 39 nM
IC50 (SU-DHL-10): 74 nM
IC50 (HCC44): 90 nM
IC50 ([2]; N=110 cell lines with mutation data in DepMap, read-out: IC50 bottom quartile (most sensitive cell lines)): ≤ 90.5 nM
IC50 ([2]; N=130 cell lines with mutation data in DepMap, read-out: IC50 top quartile (least sensitive cell lines)): ≥ 152 nM
IC50 ([2]; panel of 500 tumor cell lines, 72 hours of treatment, read-out: IC50 range, lower end): 28 nM
IC50 ([2]; panel of 500 tumor cell lines, 72 hours of treatment, read-out: IC50 range, upper end): 2100 nM
IC50 ([2]; panel of 500 tumor cell lines, 72 hours of treatment, read-out: mean IC50): 113 nM
Compound: COc1cc(F)ccc1-c1cc(Nc2cc(CS(C)(=N)=O)ccn2)ncc1F (single isomer, unassigned; (+)) [Compound 1′, (+)5-fluoro-4-(4-fluoro-2-methoxyphenyl)-N-{4-[(S-methylsulfonimidoyl)methyl]pyridin-2-yl}pyridin-2-amine]
IC50 (NCI-H460): 75 nM
IC50 (HCT116): 46 nM
IC50 (SW837): 620 nM
IC50 (SW480): 143 nM
IC50 (HCT8): 83 nM
IC50 (HCT15): 33.5 nM
IC50 (COLO205): 70 nM
IC50 (SW620): > 500 nM
IC50 (MIAPaCa2): 128 nM
IC50 (A549): 98 nM
IC50 (HT-29): 83 nM
activity against KRAS mutant cancer cell lines [1]: active
IC50 (UM-UC-3): 67 nM
IC50 (LS513): 51 nM
IC50 (MOLP8): 80 nM
IC50 (CoC1/DDP): 72 nM
IC50 (143B): 73 nM
IC50 (SU.86.86): 82 nM
IC50 (RBE): 72 nM
IC50 (HEC-1-B): 67 nM
IC50 (DV-90): 90 nM
IC50 (LCLC-97TM1): 46 nM
